1 compound from ChEMBL document CHEMBL6078711, “Design, synthesis, and biological evaluation of steroidal indole derivatives as membrane-targeting antibacterial candidates” (Eur J Med Chem, 2025) can be followed below.

SMILES strings stand for the structures. ≈ marks a conversion by molar mass, not a printed value. Calls of active or inactive are those of the source. The calls are words filed in the database; no cut-off is given here.

For series [1], the system named is Staphylococcus aureus. The series is described as follows: Antibacterial activity against methicillin-resistant Staphylococcus aureus ATCC 43300 assessed as reduction in bacterial growth. In kind it is functional.
The subject of a further series is HepG2. The series is described as follows: Cytotoxicity against human HepG2 cells assessed as cell viability upto 40 uM relative to control. Type of series: functional. Conditions: up to 40 µM.
Series [2] can be described thus: Hemolytic activity against rabbit Red blood cell assessed as hemolysis. Type of series: toxicity, cell-based, Oryctolagus cuniculus, Erythrocyte. The following applies: red blood cells.
Series [3] concerns Staphylococcus aureus. The series is described as follows: Antibacterial activity against Staphylococcus aureus CGMCC1.8721 assessed as reduction in bacterial growth at 4 to 8 times MIC measured at 0.5 hrs by time kill assay. In kind it is functional. On the set-up: scale not given: the % may be the effect or the level left.
Series [4] has as its system Staphylococcus aureus. The series is described as follows: Antibacterial activity against Staphylococcus aureus CGMCC1.8721 assessed as reduction in bacterial growth at 4 to 8 times MIC measured after 24 hrs by time kill assay. Type of series: functional, organism-based.
Series [5] deals with Staphylococcus aureus. Put plainly: Drug resistance, ratio of MIC for Staphylococcus aureus CGMCC1.8721 after 30 days exposure to MIC for Staphylococcus aureus CGMCC1.8721 during first exposure. In kind it is functional.
Series [6] deals with Staphylococcus aureus. Put plainly: Antibacterial activity against Staphylococcus aureus CGMCC1.8721 assessed as reduction in bacterial growth in presence of Fe3+. Type of series: functional.
In series [7] the test system is Staphylococcus aureus. The series is described as follows: Antibacterial activity against methicillin-resistant Staphylococcus aureus ATCC 43300 assessed as reduction in bacterial growth in presence of Na+. In kind it is functional.
For series [8], the system named is Staphylococcus aureus. Put plainly: Antibacterial activity against methicillin-resistant Staphylococcus aureus ATCC 33591 assessed as reduction in bacterial growth in presence of Mg2+. Type of series: functional.
In series [9] the test system is Staphylococcus aureus. Put plainly: Antibacterial activity against methicillin-resistant Staphylococcus aureus ATCC 33591 assessed as reduction in bacterial growth in presence of Zn2+. Type of series: functional.
Series [10] concerns Staphylococcus aureus. Put plainly: Antibacterial activity against methicillin-resistant Staphylococcus aureus ATCC 33591 assessed as reduction in bacterial growth in presence of Fe2+. In kind it is functional.
Series [11] relates to Cell membrane. The series is described as follows: Induction of inner membrane permeabilization in Staphylococcus aureus CGMCC1.8721 assessed as increase in fluorescence intensity by PI staining based fluorescence analysis. In kind it is subcellular.
Series [12] deals with Cell membrane. Put plainly: Disruption of cell membrane integrity in Staphylococcus aureus CGMCC1.8721 assessed as increase in protein leakage at 4 times MIC. In kind it is subcellular.
Series [13] concerns Staphylococcus aureus. Put plainly: Antibacterial activity against Staphylococcus aureus CGMCC1.8721 assessed as induction of ROS production at 1 to 4 times MIC by DCFH-DA staining based flow cytometry analysis. Type of series: functional, organism-based. (In general: In flow cytometry, cells or beads pass a laser one at a time.)
For series [14], the system named is Staphylococcus aureus. Put plainly: Antibacterial activity against Staphylococcus aureus CGMCC1.8721 assessed as reduction in metabolic activity at 1 to 4 times MIC by Alamar Blue assay. Type of series: functional, organism-based.
For series [15], the system named is Staphylococcus aureus. The series is described as follows: Antibacterial activity against Staphylococcus aureus CGMCC1.8721 assessed as reduction in bacterial growth in presence of phosphatidylglycerol. In kind it is functional.
Series [16] has as its system Staphylococcus aureus. The series is described as follows: Antibacterial activity against Staphylococcus aureus CGMCC1.8721 assessed as reduction in bacterial growth in presence of phosphatidylethanolamine. In kind it is functional, organism-based.
Series [17] concerns Staphylococcus aureus. The series is described as follows: Antibacterial activity against Staphylococcus aureus CGMCC1.8721 assessed as reduction in bacterial growth in presence of lipoteichoic acid. Type of series: functional, organism-based.
The subject of series [18] is Staphylococcus aureus. The series is described as follows: Antibacterial activity against Staphylococcus aureus CGMCC1.8721 assessed as reduction in bacterial growth in presence of peptidoglycan. In kind it is functional, organism-based.
Series [19] relates to Cell membrane. The series is described as follows: Disruption of cell membrane integrity in Staphylococcus aureus CGMCC1.8721 assessed as appearance of wrinkled cell surface at 1 to 4 times MIC by scanning electron microscopic analysis. Type of series: subcellular.
For series [20], the system named is Cell membrane. The series is described as follows: Disruption of cell membrane integrity in Staphylococcus aureus CGMCC1.8721 assessed as appearance of ruptured cell surface at 1 to 4 times MIC by scanning electron microscopic analysis. In kind it is subcellular.
For series [21], the system named is Staphylococcus aureus. Put plainly: Antibacterial activity against Methicillin-resistant Staphylococcus aureus CGMCC1.8721 infected in mouse skin infection model assessed as reduction in bacterial load at 10 mg/kg, sc. Type of series: functional. On the set-up: scale not given: the % may be the effect or the level left.

Consider `CCNCc1ccc2[nH]cc(C[C@@H](C)[C@H]3CC[C@H]4[C@@H]5CC[C@@H]6C[C@H](O)CC[C@]6(C)[C@H]5CC[C@]34C)c2c1`, for which the MIC (as a rule, the lowest concentration found to suppress growth) in the series with Staphylococcus aureus [1] was 1 µg/mL (≈ 2.04 µM); in the series with Staphylococcus aureus [6], 1 µg/mL; with Staphylococcus aureus [7], 1 µg/mL; with Staphylococcus aureus [8], 2 µg/mL; in the series on Staphylococcus aureus [9], 2 µg/mL; in the series on Staphylococcus aureus [10], 2 µg/mL. The MIC with Staphylococcus aureus [15] amounted to 32 µg/mL. The Activity in the series with HepG2 was greater than 70%; with Staphylococcus aureus [3] it was 100%; with Cell membrane [11], “Dose-dependent-effect”; in the series on Staphylococcus aureus [21] it was 76%. Also, the HC50 (as a rule, the concentration that lyses half of the red blood cells) in series [2] was greater than 128 µg/mL. Besides, the result in the series on Staphylococcus aureus [4], in the series on Cell membrane [12], with Staphylococcus aureus [13], with Staphylococcus aureus [14], in the series with Cell membrane [19] and in the series on Cell membrane [20] was Active. Also, the Ratio in the series with Staphylococcus aureus [5] turned out to be 64. The result with Staphylococcus aureus [16], in the series with Staphylococcus aureus [17] and in the series with Staphylococcus aureus [18] was inactive.
